Source: publication PMC5377415, “Thermo‐kinetic analysis space expansion for cyclophilin‐ligand interactions – identification of a new nonpeptide inhibitor using Biacore™ T200” (FEBS Open Bio, 2017)

Biological target: T1, His-tagged human cyclophilin-A (His-CypA) (Homo sapiens, UniProt P62937)
T1 construct: gene PPIA; full length M1-E165, codon-optimised, E. coli C41
Assay: SPR (Biacore T200), […] Langmuir fit, captured and stabilised His-CypA
Assay type: binding

T1 sequence (P62937 whole entry): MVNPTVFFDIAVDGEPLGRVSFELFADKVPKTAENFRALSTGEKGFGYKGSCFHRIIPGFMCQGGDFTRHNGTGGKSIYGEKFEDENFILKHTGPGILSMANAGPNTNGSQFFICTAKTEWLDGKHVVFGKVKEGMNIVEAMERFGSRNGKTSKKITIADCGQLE

- Kd: 248 ± 60 µM
Structure (SMILES): Nc1cccnc1N [2,3-diaminopyridine]
